Experimental data: ChEMBL document CHEMBL1201862, “PubChem BioAssay data set” (2004)
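Where inhibition never reached the appropriate level, the endpoint shown equals the highest concentration tested. Otherwise, values were interpolated linearly from a five-concentration, 48-hour dose response in 96-well plates. GI50 = concentration required for 50% inhibition of growth.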 Calls of active or inactive are those of the source. Cut-off read from the data, not from the text of the source: active = GI50 up to about 1.1 µM and inactive = higher.

Key:
Test in all cases: inhibition of tumour cell growth, NCI panel, 48 h
[1] = test system: MOLT-4
[2] = test system: SK-MEL-28
[3] = test system: UO-31
[4] = test system: DMS-114
[5] = test system: 786-0
[6] = test system: HOP-62
[7] = test system: HCC 2998
[8] = test system: CCRF-CEM
[9] = test system: TK-10
[10] = test system: K562
[11] = test system: SN12C
[12] = test system: SK-MEL-5
[13] = test system: COLO 205
[14] = test system: A549
[15] = test system: NCI-H23
[16] = test system: RXF 631
[17] = test system: DMS-273
[18] = test system: UACC-62
[19] = test system: RPMI-8226
[20] = test system: LXFL 529
[21] = test system: XF498
[22] = test system: SF-539
[23] = test system: EKVX
[24] = test system: IGROV-1
[25] = test system: SW-620
[26] = test system: UACC-257
[27] = test system: NCI-H226
[28] = test system: OVCAR-3
[29] = test system: LOX IMVI
[30] = test system: HCT-15
[31] = test system: KM12
[32] = test system: CAKI-1
[33] = test system: SK-MEL-2
[34] = test system: RXF 393
[35] = test system: M19-MEL
[36] = test system: NCI-H522
[37] = test system: SF-295
[38] = test system: HT-29
[39] = test system: SK-OV-3
[40] = test system: SNB-78
[41] = test system: Malme-3M
[42] = test system: SNB-75
[43] = test system: M14
[44] = test system: SF-268
[45] = test system: SNB-19
[46] = test system: OVCAR-8
[47] = test system: HOP-92
[48] = test system: OVCAR-4
[49] = test system: HL-60

SMILES: C=CC(=O)Nc1ccccc1CC(c1c[nH]c2ccccc12)c1c[nH]c2ccccc12
- GI50 [1]: 19.5 µM (inactive)
- GI50 [2]: 17.8 µM (inactive)
- GI50 [3]: 15.9 µM (inactive)
- GI50 [4]: 15.5 µM (inactive)
- GI50 [5]: 18.8 µM (inactive)
- GI50 [6]: 19.6 µM (inactive)
- GI50 [7]: 18.7 µM (inactive)
- GI50 [8]: 19.9 µM (inactive)
- GI50 [9]: 26.7 µM (inactive)
- GI50 [10]: 20.7 µM (inactive)
- GI50 [11]: 16.3 µM (inactive)
- GI50 [12]: 17.6 µM (inactive)
- GI50 [13]: 16.7 µM (inactive)
- GI50 [14]: 23.4 µM (inactive)
- GI50 [15]: 20 µM (inactive)
- GI50 [16]: 16.7 µM (inactive)
- GI50 [17]: 17.7 µM (inactive)
- GI50 [18]: 16.6 µM (inactive)
- GI50 [19]: 17.5 µM (inactive)
- GI50 [20]: 16.1 µM (inactive)
- GI50 [21]: 21.1 µM (inactive)
- GI50 [22]: 21.3 µM (inactive)
- GI50 [23]: 17.5 µM (inactive)
- GI50 [24]: 18.2 µM (inactive)
- GI50 [25]: 20.2 µM (inactive)
- GI50 [26]: 18.9 µM (inactive)
- GI50 [27]: 21.3 µM (inactive)
- GI50 [28]: 17.7 µM (inactive)
- GI50 [29]: 18.5 µM (inactive)
- GI50 [30]: 18.7 µM
- GI50 [31]: 19.7 µM (inactive)
- GI50 [32]: 18.2 µM (inactive)
- GI50 [33]: 17.7 µM (inactive)
- GI50 [34]: > 10 µM (inactive)
- GI50 [35]: 15.6 µM (inactive)
- GI50 [36]: 22.8 µM (inactive)
- GI50 [37]: 22.1 µM (inactive)
- GI50 [38]: 18.3 µM (inactive)
- GI50 [39]: 19.8 µM (inactive)
- GI50 [40]: 16.3 µM (inactive)
- GI50 [41]: 18 µM (inactive)
- GI50 [42]: 14.1 µM (inactive)
- GI50 [43]: 16.3 µM (inactive)
- GI50 [44]: 24.1 µM (inactive)
- GI50 [45]: 17.9 µM (inactive)
- GI50 [46]: 16.4 µM (inactive)

SMILES: CCN(CC)CCSc1nc2cccc([N+](=O)[O-])c2[nH]1
- GI50 [1]: > 100 µM (inactive)
- GI50 [2]: > 100 µM (inactive)
- GI50 [47]: 33.4 µM (inactive)
- GI50 [4]: > 100 µM (inactive)
- GI50 [7]: > 100 µM (inactive)
- GI50 [8]: > 100 µM (inactive)
- GI50 [9]: > 100 µM (inactive)
- GI50 [10]: > 100 µM (inactive)
- GI50 [11]: > 100 µM (inactive)
- GI50 [12]: > 100 µM (inactive)
- GI50 [13]: > 100 µM (inactive)
- GI50 [14]: > 100 µM (inactive)
- GI50 [15]: > 100 µM (inactive)
- GI50 [16]: > 100 µM (inactive)
- GI50 [48]: > 100 µM (inactive)
- GI50 [17]: > 100 µM (inactive)
- GI50 [18]: > 100 µM (inactive)
- GI50 [19]: > 100 µM (inactive)
- GI50 [20]: > 100 µM (inactive)
- GI50 [21]: > 100 µM (inactive)
- GI50 [22]: > 100 µM (inactive)
- GI50 [23]: > 100 µM (inactive)
- GI50 [24]: > 100 µM (inactive)
- GI50 [25]: > 100 µM (inactive)
- GI50 [26]: > 100 µM (inactive)
- GI50 [27]: > 100 µM (inactive)
- GI50 [28]: > 100 µM (inactive)
- GI50 [29]: > 100 µM (inactive)
- GI50 [30]: > 100 µM
- GI50 [31]: > 100 µM (inactive)
- GI50 [32]: > 100 µM (inactive)
- GI50 [34]: > 100 µM (inactive)
- GI50 [35]: > 100 µM (inactive)
- GI50 [36]: > 100 µM (inactive)
- GI50 [38]: > 100 µM (inactive)
- GI50 [39]: > 100 µM (inactive)
- GI50 [40]: > 100 µM (inactive)
- GI50 [42]: > 100 µM (inactive)
- GI50 [43]: > 100 µM (inactive)
- GI50 [49]: > 100 µM (inactive)
- GI50 [46]: > 100 µM (inactive)
